Laboratory results: US20260070945A1, “MACROCYCLIC IMMUNOMODULATORS” (Bristol-Myers Squibb Company, priority 2022, published 2026)
*1 amine or outer side, *2 acyl side, *3 side chain or, on linkers, in order; H or OH if unused. Where a SMILES comes first, the peptide text is derived from it. Bridges are numbered along the chain shown (N, C = ends). [ ]: non-standard residue; d: D form. The star is where a group is joined. ξ: configuration not given here. X10 = O=C(O)COc1ccc(C[C@H](CC(=O)C[*:2])C(=O)[*:1])cc1; Phe(3-CF3) = N[C@@H](Cc1cccc(C(F)(F)F)c1)C(=O)O; Phe(4-COOH) = N[C@@H](Cc1ccc(C(=O)O)cc1)C(=O)O; d(γGlu) = O=C(O)[C@@H](CCC(=O)[*:2])N[*:1]; Bip = N[C@@H](Cc1ccc(-c2ccccc2)cc1)C(=O)O; NH(CH2)14COOH = O=C(O)CCCCCCCCCCCCCCN*; Phe(3-Me) = Cc1cccc(C[C@H](N)C(=O)O)c1; γGlu = O=C(O)[C@H](CCC(=O)[*:2])N[*:1]; NH(CH2)12COOH = O=C(O)CCCCCCCCCCCCN*; Val(3-OH) = CC(C)(O)[C@H](N)C(=O)O; NHhexadecyl = CCCCCCCCCCCCCCCCN*; Cha = N[C@@H](CC1CCCCC1)C(=O)O; Thr(3ξ) = CC(O)[C@H](N)C(=O)O; dDab = NCC[C@@H](N)C(=O)O; Carboxymethyl = O=C(O)C*; NMeA = CN[C@@H](C)C(=O)O; Dab = NCC[C@H](N)C(=O)O; AEEA = NCCOCCOCC(=O)O; ξC = NC(CS)C(=O)O

molecular target: T1, PD-1/PD-L1 interaction (PE-labeled human PD-L1-Ig binding to Jurkat cell line over-expressing human PD-1) (Homo sapiens, UniProt Q15116); test: Jurkat-PD-1 Cell Binding High-Content Screening Assay (CBA); conditions: PE-labeled PD-L1-Ig 20 nM final, Jurkat-hPD-1 cells; read-out: Jurkat HPD1 PDL1 IC50
T1 construct: expressed in transfected cells; host or cells: Jurkat
T1 sequence (Q15116 25-288): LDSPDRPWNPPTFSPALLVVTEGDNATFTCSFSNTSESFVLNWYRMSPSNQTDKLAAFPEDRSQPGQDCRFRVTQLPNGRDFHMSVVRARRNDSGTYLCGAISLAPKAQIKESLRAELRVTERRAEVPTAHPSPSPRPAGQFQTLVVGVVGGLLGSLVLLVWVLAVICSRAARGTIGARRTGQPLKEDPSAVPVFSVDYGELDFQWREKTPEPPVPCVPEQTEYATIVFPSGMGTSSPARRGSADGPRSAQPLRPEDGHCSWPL
In short: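 Read-out: high-content imaging of cell-bound PE fluorescence, with Hoechst 33342 nuclear counterstain after paraformaldehyde fixation. Before labeled ligand (20 nM final, 1 h) was added, compound sat on the cells for 2 h at 37 °C in DMEM/10% FCS.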

SMILES | IC50 [nM]
CC(=O)NCCCC[C@@H]1NC(=O)[C@H](C(C)(C)O)NC(=O)[C@H](CC2CCCCC2)NC(=O)[C@H](CCN)NC(=O)[C@@H](CC(C)C)NC(=O)[C@H](C)N(C)C(=O)[C@H](CCCNC(=N)N)NC(=O)[C@H](Cc2ccc(-c3ccccc3)cc2)NC(=O)[C@H](Cc2ccc(C(=O)O)cc2)NC(=O)[C@H](Cc2cccc(C(F)(F)F)c2)NC(=O)[C@H](CC(=O)O)NC(=O)[C@H](Cc2ccc(OCC(=O)O)cc2)NC(=O)[C@H](Cc2ccc(OCC(=O)O)cc2)NC(=O)CSC[C@@H](C(=O)N[C@@H](CCN)C(=O)NCCCCCCCCCCCCC(=O)O)NC1=O [Example 2638] ({CH2CO}-Y(Carboxymethyl)Y(Carboxymethyl)D[Phe(3-CF3)][Phe(4-COOH)][Bip]R[NMeA][dL][Dab][Cha][Val(3-OH)]K(Ac)C[Dab]-{NH(CH2)12COOH}; thioether N-14) | 9.1
CC(=O)NCCCC[C@@H]1NC(=O)[C@H](C(C)(C)O)NC(=O)[C@H](CC2CCCCC2)NC(=O)[C@H](CCN)NC(=O)[C@@H](CC(C)C)NC(=O)[C@H](C)N(C)C(=O)[C@H](CCCNC(=N)N)NC(=O)[C@H](Cc2ccc(-c3ccccc3)cc2)NC(=O)[C@H](Cc2ccc(C(=O)O)cc2)NC(=O)[C@H](Cc2cccc(C(F)(F)F)c2)NC(=O)[C@H](CC(=O)O)NC(=O)[C@H](Cc2ccc(OCC(=O)O)cc2)NC(=O)[C@H](Cc2ccc(OCC(=O)O)cc2)NC(=O)CSC[C@@H](C(=O)N[C@@H](CCN)C(=O)NCCOCCOCC(=O)NCCCCCCCCCCCCC(=O)O)NC1=O [Example 2639] ({CH2CO}-Y(Carboxymethyl)Y(Carboxymethyl)D[Phe(3-CF3)][Phe(4-COOH)][Bip]R[NMeA][dL][Dab][Cha][Val(3-OH)]K(Ac)C[Dab][AEEA]-{NH(CH2)12COOH}; thioether N-14) | 16.8
CC(=O)NCCCC[C@@H]1NC(=O)[C@H](C(C)(C)O)NC(=O)[C@H](CC2CCCCC2)NC(=O)[C@H](CCN)NC(=O)[C@@H](CC(C)C)NC(=O)[C@H](C)N(C)C(=O)[C@H](CCC(=O)O)NC(=O)[C@H](Cc2ccc(-c3ccccc3)cc2)NC(=O)[C@H](Cc2ccc(C(=O)O)cc2)NC(=O)[C@H](Cc2cccc(C(F)(F)F)c2)NC(=O)[C@H](CC(=O)O)NC(=O)[C@H](Cc2ccc(OCC(=O)O)cc2)NC(=O)[C@H](Cc2ccc(OCC(=O)O)cc2)NC(=O)CSC[C@@H](C(=O)N[C@@H](CCN)C(=O)NCCOCCOCC(=O)NCCCCCCCCCCCCC(=O)O)NC1=O [Example 2640] ({CH2CO}-Y(Carboxymethyl)Y(Carboxymethyl)D[Phe(3-CF3)][Phe(4-COOH)][Bip]E[NMeA][dL][Dab][Cha][Val(3-OH)]K(Ac)C[Dab][AEEA]-{NH(CH2)12COOH}; thioether N-14) | 39.7
CCCCCCCCCCCCCCCCNC(=O)CC[C@H](NC(=O)COCCOCCNC(=O)[C@H](CCN)NC(=O)[C@@H]1CSCC(=O)C[C@@H](Cc2ccc(OCC(=O)O)cc2)C(=O)N[C@@H](Cc2ccc(OCC(=O)O)cc2)C(=O)N[C@@H](CC(=O)O)C(=O)N[C@@H](Cc2cccc(C(F)(F)F)c2)C(=O)N[C@@H](Cc2ccc(C(=O)O)cc2)C(=O)N[C@@H](Cc2ccc(-c3ccccc3)cc2)C(=O)N[C@@H](CCC(N)=O)C(=O)N(C)[C@@H](C)C(=O)N[C@H](CC(C)C)C(=O)N[C@@H](CCN)C(=O)N[C@@H](CC2CCCCC2)C(=O)N[C@@H](C(C)(C)O)C(=O)N[C@@H](CCCCNC(C)=O)C(=O)N1)C(=O)O [Example 2641] (Y(Carboxymethyl)D[Phe(3-CF3)][Phe(4-COOH)][Bip]Q[NMeA][dL][Dab][Cha][Val(3-OH)]K(Ac)C[Dab][AEEA]E(NHhexadecyl)-OH; linker N-13 via X10) | 38.9
Cc1cccc(C[C@@H]2NC(=O)[C@H](CC(=O)O)NC(=O)[C@H](Cc3ccc(OCC(=O)O)cc3)NC(=O)[C@H](C)NC(=O)CSC[C@@H](C(=O)N[C@@H](CCN)C(=O)NCCCCCCCCCCCCC(=O)O)NC(=O)[C@H](Cc3cnc[nH]3)NC(=O)[C@H](C(C)(C)O)NC(=O)[C@H](CC3CCCCC3)NC(=O)[C@H](CCN)NC(=O)[C@@H](CC(C)C)NC(=O)[C@H](C)N(C)C(=O)[C@H](CCCNC(=N)N)NC(=O)[C@H](Cc3ccc(-c4ccccc4)cc3)NC(=O)[C@H](Cc3ccc(O)cc3)NC2=O)c1 [Example 2642] ({CH2CO}-AY(Carboxymethyl)D[Phe(3-Me)]Y[Bip]R[NMeA][dL][Dab][Cha][Val(3-OH)]HC[Dab]-{NH(CH2)12COOH}; thioether N-14) | 74.4
Cc1cccc(C[C@@H]2NC(=O)[C@H](CC(=O)O)NC(=O)[C@H](Cc3ccc(C(=O)O)cc3)NC(=O)[C@H](C(C)O)NC(=O)CSCC(C(=O)N[C@@H](CCN)C(=O)NCCCCCCCCCCCCC(=O)O)NC(=O)[C@H](CO)NC(=O)[C@H](C(C)(C)O)NC(=O)[C@H](CC3CCCCC3)NC(=O)[C@H](CCN)NC(=O)[C@@H](CC(C)C)NC(=O)[C@H](C)N(C)C(=O)[C@H](CCCNC(=N)N)NC(=O)[C@H](Cc3ccc(-c4ccccc4)cc3)NC(=O)[C@H](Cc3ccc(O)cc3)NC2=O)c1 (stereo partly drawn) [Example 2643] ({CH2CO}-[Thr(3ξ)][Phe(4-COOH)]D[Phe(3-Me)]Y[Bip]R[NMeA][dL][Dab][Cha][Val(3-OH)]S[ξC][Dab]-{NH(CH2)12COOH}; thioether N-14) | 39.9
Cc1cccc(C[C@@H]2NC(=O)[C@H](CC(=O)O)NC(=O)[C@H](Cc3ccc(C(=O)O)cc3)NC(=O)[C@H](C(C)O)NC(=O)CSC[C@@H](C(=O)N[C@@H](CCN)C(=O)NCCCCCCCCCCCCC(=O)O)NC(=O)[C@H](CO)NC(=O)[C@H](C(C)(C)O)NC(=O)[C@H](CC3CCCCC3)NC(=O)[C@H](CCN)NC(=O)[C@@H](CC(C)C)NC(=O)[C@H](C)N(C)C(=O)[C@H](CCCNC(=N)N)NC(=O)[C@H](Cc3ccc(-c4ccccc4)cc3)NC(=O)[C@H](Cc3ccc(C(=O)O)cc3)NC2=O)c1 (stereo partly drawn) [Example 2644] ({CH2CO}-[Thr(3ξ)][Phe(4-COOH)]D[Phe(3-Me)][Phe(4-COOH)][Bip]R[NMeA][dL][Dab][Cha][Val(3-OH)]SC[Dab]-{NH(CH2)12COOH}; thioether N-14) | 16.6
CC(C)C[C@H]1NC(=O)[C@H](C)N(C)C(=O)[C@H](CCCNC(=N)N)NC(=O)[C@H](Cc2ccc(-c3ccccc3)cc2)NC(=O)[C@H](Cc2ccc(C(=O)O)cc2)NC(=O)[C@H](Cc2cccc(C(F)(F)F)c2)NC(=O)[C@H](CC(=O)O)NC(=O)[C@H](Cc2ccc(OCC(=O)O)cc2)NC(=O)[C@H](C(C)O)NC(=O)CSC[C@@H](C(=O)N[C@H](CC(N)=O)C(=O)NCCCCCCCCCCCCC(=O)O)NC(=O)[C@H](CO)NC(=O)[C@H](C(C)(C)O)NC(=O)[C@H](CC2CCCCC2)NC(=O)[C@H](CCN)NC1=O (stereo partly drawn) [Example 2645] ({CH2CO}-[Thr(3ξ)]Y(Carboxymethyl)D[Phe(3-CF3)][Phe(4-COOH)][Bip]R[NMeA][dL][Dab][Cha][Val(3-OH)]SC[dN]-{NH(CH2)12COOH}; thioether N-14) | 114
CC(=O)NCCCC[C@@H]1NC(=O)[C@H](C(C)(C)O)NC(=O)[C@H](CC2CCCCC2)NC(=O)[C@H](CCN)NC(=O)[C@@H](CC(C)C)NC(=O)[C@H](C)N(C)C(=O)[C@H](CCC(N)=O)NC(=O)[C@H](Cc2ccc(-c3ccccc3)cc2)NC(=O)[C@H](Cc2ccc(C(=O)O)cc2)NC(=O)[C@H](Cc2cccc(C(F)(F)F)c2)NC(=O)[C@H](CC(=O)O)NC(=O)[C@H](Cc2ccc(OCC(=O)O)cc2)NC(=O)[C@H](Cc2ccc(OCC(=O)O)cc2)NC(=O)CSC[C@@H](C(=O)N[C@H](CCN)C(=O)NCCOCCOCC(=O)N[C@@H](CO)C(=O)NCCOCCOCC(=O)N[C@@H](CCC(=O)NCCCCCCCCCCCCCCC(=O)O)C(=O)O)NC1=O [Example 2650] ({CH2CO}-Y(Carboxymethyl)Y(Carboxymethyl)D[Phe(3-CF3)][Phe(4-COOH)][Bip]Q[NMeA][dL][Dab][Cha][Val(3-OH)]K(Ac)C[dDab][AEEA]S[AEEA]E(NH(CH2)14COOH)-OH; thioether N-14) | 161
CC(=O)NCCCC[C@@H]1NC(=O)[C@H](C(C)(C)O)NC(=O)[C@H](CC2CCCCC2)NC(=O)[C@H](CCN)NC(=O)[C@@H](CC(C)C)NC(=O)[C@H](C)N(C)C(=O)[C@H](CCC(N)=O)NC(=O)[C@H](Cc2ccc(-c3ccccc3)cc2)NC(=O)[C@H](Cc2ccc(C(=O)O)cc2)NC(=O)[C@H](Cc2cccc(C(F)(F)F)c2)NC(=O)[C@H](CC(=O)O)NC(=O)[C@H](Cc2ccc(OCC(=O)O)cc2)NC(=O)[C@H](Cc2ccc(OCC(=O)O)cc2)NC(=O)CSC[C@@H](C(=O)N[C@@H](CCN)C(=O)NCCOCCOCC(=O)N[C@@H](CCC(=O)NCCOCCOCC(=O)NCCCCCCCCCCCCCCC(=O)O)C(=O)O)NC1=O [Example 2652] ({CH2CO}-Y(Carboxymethyl)Y(Carboxymethyl)D[Phe(3-CF3)][Phe(4-COOH)][Bip]Q[NMeA][dL][Dab][Cha][Val(3-OH)]K(Ac)C[Dab][AEEA][γGlu][AEEA]-{NH(CH2)14COOH}; thioether N-14) | 47
CC(=O)NCCCC[C@@H]1NC(=O)[C@H](C(C)(C)O)NC(=O)[C@H](CC2CCCCC2)NC(=O)[C@H](CCN)NC(=O)[C@@H](CC(C)C)NC(=O)[C@H](C)N(C)C(=O)[C@H](CCC(N)=O)NC(=O)[C@H](Cc2ccc(-c3ccccc3)cc2)NC(=O)[C@H](Cc2ccc(C(=O)O)cc2)NC(=O)[C@H](Cc2cccc(C(F)(F)F)c2)NC(=O)[C@H](CC(=O)O)NC(=O)[C@H](Cc2ccc(OCC(=O)O)cc2)NC(=O)[C@H](Cc2ccc(OCC(=O)O)cc2)NC(=O)CSC[C@@H](C(=O)N[C@@H](CCN)C(=O)NCCOCCOCC(=O)N[C@H](CCC(=O)N[C@H](CCC(=O)NCCOCCOCC(=O)NCCCCCCCCCCCCCCC(=O)O)C(=O)O)C(=O)O)NC1=O [Example 2655] ({CH2CO}-Y(Carboxymethyl)Y(Carboxymethyl)D[Phe(3-CF3)][Phe(4-COOH)][Bip]Q[NMeA][dL][Dab][Cha][Val(3-OH)]K(Ac)C[Dab][AEEA][d(γGlu)][d(γGlu)][AEEA]-{NH(CH2)14COOH}; thioether N-14) | 584
